Laboratory results reported in US5212158A, “Derivatives of L-proline, their preparation and their biological uses” (Inorgan SA Recherche & Developpement Pharmaceutiques, CAS, priority 1987, dated 1993).
Residues, ends and D or L forms follow the SMILES beside them. *: point of attachment. PhAc = O=C(Cc1ccccc1)*; Bz = O=C(c1ccccc1)*

Columns and labels:
mouse = assay: Test of passive avoidance: amnesia induced by scopolamine; format: in vivo; conditions: for activity in the scopolamine amnesia test: at 2, 8 and 32 mg/kg; for activity in the scopolamine amnesia test / dose at which activity is significant / active dose, scopolamine amnesia test: oral administration; for dose with significant/antagonistic effect on scopolamine amnesia: i.p. route 60 minutes before Assay 1
Protocol: The procedure described by Glick and Zimmerberg in Behavioural Biology, 1972, 7: 245-254 and by Lenegre et al in Pharmacol. Biochem. Behav., 29 (3) 1988 were used.
The mouse is introduced into the illuminated compartment of a two-compartment box. When it crosses into the darker component its paws receive electric shocks of 0.3 mA until it returns into the illuminated compartment (Assay 1).
When the mouse is returned to the box 24 hours later (Assay 2), it avoids going into the darker component. An i.p. injection of scopolamine (1 mg.kg^-1) 30 minutes before Assay 1 reduces the memory of this experience as is reflected in the delay of the reaction of the mouse before it crosses to the darker compartment in Assay 2. […]
Piracetam was used as reference substance.

TSH = assay: Effect on adenohypophyseal hormone secretions: TSH radioimmunoassay; format: in vivo, rat; conditions: male rats, plasma 30 min later; for activity on TSH levels: 32 mg/kg IP
Protocol: (§1) Male rats received 2 mg/kg, 8 mg/kg, or 32 mg/kg IP of product of example 1 in arabic gum (2.5%) and 32 mg/kg IP of products of examples 2 and 3. Rats were killed 30 min. later by decapitation and plasma samples were aliquoted and kept frozen (-20° C.) until assays. Before the experiments, the rats have been accustomed to handling to avoid any stress effect.
(§2) Hormones were assayed using radioimmunoassays for prolactin, GH and TSH.

GH = assay: Effect on adenohypophyseal hormone secretions: GH radioimmunoassay; format: in vivo, rat; conditions: male rats; 32 mg/kg IP; plasma 30 min later
Protocol: as §1, §2

prolactin = assay: Effect on adenohypophyseal hormone secretions: prolactin radioimmunoassay; format: in vivo, rat; conditions: male rats, plasma 30 min later; for activity on prolactin levels: 32 mg/kg IP
Protocol: as §1, §2

mice of the NMRI strain [1] = assay: Antagonism of sleep induced by barbiturates; format: in vivo, mouse; conditions: oral 2 and 8 mg/kg one hour before barbital 50 mg/kg i.p.; compared with a control group
Protocol: A compound of the invention is administered orally at doses of 2, 8 and 32 mg.kg^-1 to mice of the NMRI strain one hour before the intraperitoneal administration of barbital at a dose of 50 mg/kg.

[2] = tested on: male mice of the NMRI strain; assay: Irwin test; format: in vivo, mouse
Protocol: A volume of 0.25 ml/20 g of body weight of a suspension of the compound of the invention in 5% gum arabic is administered to male mice of the NMRI strain by the i.p. route. The control animals received only the 5% suspension of gum arabic. Changes in behaviour, neurotoxicity symptoms, the diameter of the pupil and the rectal temperature are recorded in the standardized observation schedule according to Irwin in Psychopharmacologia, 1968, 13, 222-257. These observations were made at 15, 30, 60, 120 and 180 minutes after injection and 24 hours later. The compounds of the invention were studied at doses of 1024, 512 and 256 mg.kg^-1.

NMRI mice = assay: Potentiation of the effects of L-dopa; format: in vivo, mouse; conditions: oral 8 and 32 mg/kg one hour before L-dopa 150 mg/kg i.p.
Protocol: A compound of the invention is adiministered orally at doses of 2, 8 and 32 mg/kg to NMRI mice one hour before the intraperitoneal administration of 150 mg/kg of L-dopa.

mice of the NMRI strain [3] = assay: Test of passive avoidance: amnesia induced by diazepam; format: in vivo, mouse; conditions: for dose with statistically significant effect / dose reducing diazepam amnesia: 60 minutes before Assay 1, piracetam by the i.p. route
Protocol: A volume of 0.25 ml/20 g of body weight of the compound of Example 1 (suspension in 5% gum arabic) is administered to mice of the NMRI strain or, in the case of the reference substance, an aqueous solution of piracetam or of diazepam (5% suspension in gum arabic) is administered. The control animals receive only injections of the vehicle (suspension of gum arabic). The test is carried out at indicated above for the induction of amnesia by the injection of scopolamine, with exception that this latter is replaced by diazepam. An injection of diazepam by the i.p. route 30 minutes before Assay 1 at a dose of 1 mg.kg^-1 reduces memory in a significant manner as is shown by the diminution of the reaction time in the mouse for crossing to the dark compartment during Assay 2.

[4] = Solubility of the product obtained; format: physicochemical
Description: The product obtained was insoluble in water and is soluble to the extent of at least 1% to 5% in organic solvents such as methanol. chloroform, ethyl acetate and dimethylformamide.

[5] = i.p. 1024 mg.kg^-1, between 1 and 2 hours after administration

Row | Molecule | activity in the scopolamine amnesia test (mouse) | dose at which activity is significant / active dose, scopolamine amnesia test (mouse) [mg/kg] | activity on TSH levels (TSH) | activity on GH levels (GH) | activity on prolactin levels (prolactin) | dose with significant/antagonistic effect on scopolamine amnesia (mouse) [mg/kg] | dose with statistically significant effect / dose reducing diazepam amnesia (mice of the NMRI strain [3]) [mg/kg] | further results
1 | 4-fluorocinnamoylglycyl-L-phenylalanine-L-prolinamide [Example 2] | active | 2 | no activity at all | no activity at all | no activity at all | – | – | –
2 | NC(=O)[C@@H]1CCCN1C(=O)[C@H](Cc1ccccc1)NC(=O)CNC(=O)C=Cc1ccccc1 [Example 1, cinnamoyl-glycyl-L-phenylalanyl-L-prolinamide] | active | 2 | – | – | – | 1 | 4 | antagonism of the effects of scopolamine (Assay 2) (mouse; i.p. 60 minutes before Assay 1, doses of 1, 4 and 16 mg/kg): antagonizes the effects of scopolamine; duration of sleep (mice of the NMRI strain [1]): significantly diminishes the duration of sleep; TSH levels (TSH; 8 mg/kg IP): very slightly increased; Irwin observations versus control animals ([2]; i.p. 256 mg.kg^-1): no difference from the control animals; Irwin observations (hypothermia) ([2]; i.p. 512 mg.kg^-1): only a slight hypothermia; hypothermia ([2]; i.p. 1024 mg.kg^-1): hypothermia (2 mice/3); ptosis ([2]; i.p. 1024 mg.kg^-1): moderate ptosis (3 mice/3); excitation [2, 5]: excitation (1 mouse/3); sedation [2, 5]: slight sedation (1 mouse/3); behavioural changes with L-dopa (NMRI mice): induces behavioural changes in the treated animals such as rapid running and jumping; antagonism of the effect of diazepam (Assay 2) (mice of the NMRI strain [3]; doses of 0.25, l and 4 mg.kg^-1, 60 minutes before Assay 1, diazepam 1 mg.kg^-1 i.p.): antagonizes the effect of diazepam in a dose-dependent manner; prolactin levels (prolactin; 2, 8 or 32 mg/kg IP, dose dependent): slightly increased; solubility in water [4]: insoluble
3 | NC(=O)[C@@H]1CCCN1C(=O)[C@H](Cc1ccccc1)NC(=O)CNC(=O)C=Cc1ccc2c(c1)OCO2 [Example 3, 3,4-methylenedioxycinnamoyl-glycyl-L-phenylalanyl-L-prolinamide] | active | 2 | no activity at all | no activity at all | no activity at all | – | – | –
4 | NC(=O)[C@@H]1CCCN1C(=O)[C@H](Cc1ccccc1)NC(=O)CNC(=O)c1ccccc1 [Example 6, benzoyl-glycyl-L-phenylalanyl-L-prolinamide] (Bz-Gly-Phe-Pro-NH2) | active | 2 | – | – | – | – | – | –
5 | NC(=O)[C@@H]1CCCN1C(=O)[C@H](Cc1ccccc1)NC(=O)CNC(=O)Cc1ccccc1 [Example 7, phenylacetyl-glycyl-L-phenylalanyl-L-prolinamide] (PhAc-Gly-Phe-Pro-NH2) | active | 2 | – | – | – | – | – | –
6 | NC(=O)CN1CCCC1=O [piracetam, reference compound] | – | 2048 | – | – | – | 512 | 512 | latent periods for crossing into the dark compartment or for escaping from it during Assay 1 (mouse; i.p. or oral route 60 mn before the assay, Assay 1): does not produce any effect
